Laboratory results taken from US4260608A, “Maytansinoids, pharmaceutical compositions thereof and methods of use thereof” (Takeda Chemical Industries, Ltd., priority 1978, dated 1981).
In brackets after ≈: the same amount, converted by molar mass. Like-named read-outs stand apart in the source and are kept apart here.

Key:
[1] = tested on: melanoma B-16 tumor cells; assay: Antitumor activity, life span prolongation in mice transplanted intraperitoneally with melanoma B-16; assay type: in vivo; conditions: intraperitoneal, once daily for 9 consecutive days
Description: Therapeutic tests were carried out in mice according to NCI-protocol 1,300, Cancer Chemother, Reports, Part 3, 1972, Vol. 3, No. 2, in which melanoma B-16 tumor cells had been intraperitoneally transplanted, compound (I) being administered intraperitoneally once daily for 9 consecutive days.

Tetrahymena pyriformis W = assay: Antiprotozoal activity, growth inhibition by serial dilution method; assay type: cell-based
Description: Antiprotozoal activity of compound (I) was assayed with Tetrahymena pyriformis W as the test organism and a medium composed of 20 g tryptose-peptone (Difco Co.), 1 g yeast extract, 2 g glucose, 1000 ml distilled water, 10 ml 1 M phosphate buffer (pH 7.0) as the assay medium. The microorganism was incubated at 28° C. for 44 to 48 hours and the growth inhibitory activity of compound (I) was assayed by the serial dilution method.

[2] = Tetrahymena pyriformis W, 28° C., 44 to 48 hours, pH 7.0 medium, serial dilution, read-out: Antiprotozoal activity MIC

| Compound | Antitumor activities B-16 (T/C %) ([1]; 12.5 μg/kg) | Antitumor activities B-16 (T/C %) ([1]; 25 μg/kg) | Antitumor activities B-16 (T/C %) ([1]; 50 μg/kg) | Antitumor activities B-16 (T/C %) ([1]; 100 μg/kg) | MIC (Tetrahymena pyriformis W; [2]) | MIC (Tetrahymena pyriformis W; Tetrahymena pyriformis, pH 7, read-out: Antiprotozoal activity MIC) | Antitumor activities B-16 (T/C %) ([1]; 200 μg/kg) |
| --- | --- | --- | --- | --- | --- | --- | --- |
| COc1cc2cc(c1Cl)N(C)C(=O)CC(OC(=O)[C@H](C)N(C)C(=O)OC(C)(C)C)C1(C)OC1C(C)C1CC(O)(NC(=O)O1)C(OC)C=CC=C(C)C2 (stereo partly drawn) [maytansinol 3-(N-tert-butoxycarbonyl-N-methyl)-L-alanine ester] | 163% | 178% | 198% | 193% | 0.4 to 0.8 µg/mL (≈ 0.533 to 1.07 µM) | – | – |
| COc1cc2cc(c1Cl)N(C)C(=O)CC(OC(=O)[C@@H](CC(C)C)N(C)C(C)=O)C1(C)OC1C(C)C1CC(O)(NC(=O)O1)C(OC)C=CC=C(C)C2 (stereo partly drawn) [maytansinol 3-(N-acetyl-N-methyl)-D-leucine ester] | – | – | – | – | – | 28 µg/mL (≈ 38.1 µM) | – |
| COc1cc2cc(c1Cl)N(C)C(=O)CC(OC(=O)[C@H](Cc1ccccc1)N(C)C(C)=O)C1(C)OC1C(C)C1CC(O)(NC(=O)O1)C(OC)C=CC=C(C)C2 (stereo partly shown) | – | 211% | 208% | 205% | 1 µg/mL (≈ 1.3 µM) | – | 95% |
| COc1cc2cc(c1Cl)N(C)C(=O)CC(OC(=O)[C@@H](C)N(C)C(=O)OC(C)(C)C)C1(C)OC1C(C)C1CC(O)(NC(=O)O1)C(OC)C=CC=C(C)C2 (stereo partly drawn) [maytansinol 3-(N-tert-butoxycarbonyl-N-methyl)-D-alanine ester] | – | – | – | – | 8 µg/mL (≈ 10.7 µM) | – | – |
| COc1cc2cc(c1Cl)N(C)C(=O)CC(OC(=O)[C@H](CC(C)C)N(C)C(C)=O)C1(C)OC1C(C)C1CC(O)(NC(=O)O1)C(OC)C=CC=C(C)C2 (stereo partly drawn) [maytansinol 3-(N-acetyl-N-methyl)-L-leucine ester] | – | 171% | 209% | 202% | 2 µg/mL (≈ 2.72 µM) | – | 65% |
| COc1cc2cc(c1Cl)N(C)C(=O)CC(OC(=O)[C@H](C)N(C)C(=O)c1ccccc1)C1(C)OC1C(C)C1CC(O)(NC(=O)O1)C(OC)C=CC=C(C)C2 (stereo partly drawn) [maytansinol 3-(N-benzoyl-N-methyl)-L-alanine ester] | – | – | – | – | 2 to 4 µg/mL (≈ 2.65 to 5.3 µM) | – | – |
| COc1cc2cc(c1Cl)N(C)C(=O)CC(OC(=O)[C@H](Cc1ccccc1)NC(=O)OC(C)(C)C)C1(C)OC1C(C)C1CC(O)(NC(=O)O1)C(OC)C=CC=C(C)C2 (stereo partly drawn) [maytansinol 3-(N-t-butyloxycarbonyl)-L-phenylalanine ester] | – | – | – | – | 4 µg/mL (≈ 4.92 µM) | – | – |
